One data set in a line: in vivo. As to conditions: female, po.
For data set [1] the following is noted: 120 min, mean ± SD.
For data set [2] the following is noted: for time at which plasma concentrations reached a maximum: oral administration.
The nature of another data set: in vitro. The settings on record: pH 6; for Papp at 120 min, 0.1 µCi/mL: APP/PS1, mouse; for Papp at 120 min: WT, mouse.
The conditions of data set [3]: oral administration; cited from earlier work.

Where two headings read alike, the source gives them in different places.

The Papp is the rate of passage across a membrane or cell layer, normalised by area and donor concentration. A low value points to slow passage.

`Cn1c(=O)c2c(ncn2C)n(C)c1=O` [Caffeine, caffeine]: the Kp in “in vivo” (APP/PS1 (B6C3-Tg (APPswe, PSEN1dE9)85Dbo/Mmjax), mouse) lay in the range of 0.63 to 2.82; in the data set “in vivo” (WT littermates of APP/PS1, mouse), 1.07 to 2.78. Besides, the “% of initial amount at 2 h (absorbed through jejunal tissue)” value (“% of initial amount at 2 h” below) was determined as 0.46 ± 0.14% in data set [1] (jejunum from APP/PS1 mice, listed as 14C-Caffeine); 0.46% in data set [1] (jejunum from APP/PS1 mice, listed as 14C-caffeine); 0.40 ± 0.09% in data set [1] (jejunum from WT mice, listed as 14C-Caffeine); 0.40% in data set [1] (jejunum from WT mice, listed as 14C-caffeine). Moreover, in data set [2] (oral dose of 5 mg/kg, present study), the “time post-dose at which Cmax appeared” value was determined as 0.5 h. The Papp at 120 min, 0.1 µCi/mL in “in vitro” is 27.2 ± 13.8 ×10⁻⁶ cm/s. The compound further returned a Papp at 120 min in “in vitro” of 31.4 ± 10.1 ×10⁻⁶ cm/s.
Consider `C[C@H]1O[C@@H](O[C@H]2[C@@H](O)C[C@H](O[C@H]3[C@@H](O)C[C@H](O[C@H]4CC[C@@]5(C)[C@H](CC[C@@H]6[C@@H]5C[C@@H](O)[C@]5(C)[C@@H](C7=CC(=O)OC7)CC[C@]65O)C4)O[C@@H]3C)O[C@@H]2C)C[C@H](O)[C@@H]1O` [Digoxin, digoxin], for which the “% of initial amount at 2 h” value in data set [1] (jejunum from APP/PS1 mice, listed as 3H-Digoxin) is recorded as 0.22 ± 0.11 %; in data set [1] (jejunum from APP/PS1 mice, listed as 3H-digoxin) it was 0.22 ± 0.11%; in data set [1] (jejunum from WT mice, listed as 3H-Digoxin), 0.85 ± 0.30%; in data set [1] (jejunum from WT mice, listed as 3H-digoxin) it was 0.85 ± 0.3%. For the same compound, the “time at which plasma concentrations reached a maximum” value in data set [2] (APP/PS1 mice) and in data set [2] (WT mice) was 0.5 h each time. The compound further gave a Papp at 120 min, 0.1 µCi/mL in the data set “in vitro” of 14.5 ± 11 ×10⁻⁶ cm/s. The compound further came in with a Papp at 120 min in “in vitro” of 64.2 ± 39.4 ×10⁻⁶ cm/s.
Take `CN1C(=O)CN=C(c2ccccc2)c2cc(Cl)ccc21` [Diazepam, diazepam]: the “% of initial amount at 2 h” value in data set [1] (jejunum from APP/PS1 mice, listed as 3H-Diazepam) turned out to be 0.52 ± 0.12%; in data set [1] (jejunum from APP/PS1 mice, listed as 3H-diazepam) it was 0.52%; in data set [1] (jejunum from WT mice, listed as 3H-Diazepam), 0.42 ± 0.12%; in data set [1] (jejunum from WT mice, listed as 3H-diazepam), 0.42%.
Turning to `CCCCC(=O)N(Cc1ccc(-c2ccccc2-c2nnn[nH]2)cc1)[C@H](C(=O)O)C(C)C` [Valsartan, valsartan], the “time at which plasma concentrations reached a maximum” value in data set [2] (APP/PS1 mice) and in data set [2] (WT mice) was 1 h each time. In “in vitro”, this compound yielded a Papp at 120 min of 55.8 ± 16.7 ×10⁻⁶ cm/s.
As for `CCN(C)C(=O)Oc1cccc([C@H](C)N(C)C)c1` [rivastigmine], in data set [3], the “plasma concentrations in people with AD compared to healthy volunteers” value is on record as “significantly higher”.
Take `OC[C@@H](O)[C@@H](O)[C@H](O)[C@H](O)CO` [^14C-Mannitol, mannitol]: the “% of initial amount at 2 h” value in data set [1] (jejunum from APP/PS1 mice) came to 0.12 ± 0.04 %. In data set [1] (jejunum from WT mice), the “% of initial amount at 2 h” value turned out to be 0.17 ± 0.05%. In the data set “in vitro”, this compound came in with a Papp at 120 min, 0.1 µCi/mL of 6 ± 3.4 ×10⁻⁶ cm/s and an apparent permeability coefficient (Papp) at 120 min of 10.7 ± 3.7 ×10⁻⁶ cm/s.

The record behind these values is publication PMC7842083 (Molecular pharmaceutics, 2020).
